A word on the IC50: it is the concentration that gives 50% inhibition. As usually defined, the inhibition is the relative decrease from the control value, in per cent.

Calls of active or inactive are those of the source. No cut-off for these calls is given here. Bounds are passed on as bounds.

The target of data set [1] is DNA dC->dU-editing enzyme APOBEC-3B (Homo sapiens, UniProt Q9UH17). Description: Inhibition of recombinant APOBEC3B (unknown origin) expressed in HEK293 cells assessed as reduction in cytosine deaminase activity using 5'-6-FAM and 3'-TAMRA quench molecule tagged cytosine-containing single-stranded DNA substrate incubated for 2 hrs by fluorescence-based assay. The format is cell-based.

The target of data set [2] is DNA dC->dU-editing enzyme APOBEC-3G (Homo sapiens, UniProt Q9HC16, C321A). Description: Inhibition of recombinant APOBEC3G C321A mutant (unknown origin) expressed in HEK293 cells assessed as reduction in cytosine deaminase activity using 5'-6-FAM and 3'-TAMRA quench molecule tagged cytosine-containing single-stranded DNA substrate incubated for 2 hrs by fluorescence-based assay. The format is cell-based.

Data set [3] is described as follows: Inhibition of recombinant APOBEC3G 2K3A mutant (unknown origin) expressed in HEK293 cells assessed as reduction in cytosine deaminase activity using 5'-6-FAM and 3'-TAMRA quench molecule tagged cytosine-containing single-stranded DNA substrate incubated for 2 hrs by fluorescence-based assay. The format is cell-based, Homo sapiens.
Data set [4] concerns the target T1, DNA dC->dU-editing enzyme APOBEC-3G (Homo sapiens, UniProt Q9HC16). Description: Inhibition of recombinant APOBEC3G (unknown origin) expressed in HEK293 cells assessed as reduction in cytosine deaminase activity using 5'-6-FAM and 3'-TAMRA quench molecule tagged cytosine-containing single-stranded DNA substrate incubated for 2 hrs by fluorescence-based assay. The format is cell-based.

Data set [5] deals with T2, DNA dC->dU-editing enzyme APOBEC-3A (Homo sapiens, UniProt P31941). Description: Inhibition of recombinant APOBEC3A (unknown origin) expressed in HEK293 cells assessed as reduction in cytosine deaminase activity using 5'-6-FAM and 3'-TAMRA quench molecule tagged cytosine-containing single-stranded DNA substrate incubated for 2 hrs by fluorescence-based assay. It is filed as cell-based.

The nature of data set [6]: Stability in DMSO at 10 mM shaken gently at 25 degC exposed toN2 atmosphere assessed as compound degradation measured over 9 hrs by HPLC analysis. The format is physicochemical. Particulars: 10000 µM.
Data set [7] is described as follows: Stability in DMSO assessed as light dependent drug degradation by HPLC analysis. It is filed as physicochemical.
Data set [8] can be described thus: Toxicity in human HeLa cells assessed as cell viability at 50 uM incubated for 5 days relative to control. Particulars: read-out: Activity. It is filed as cell-based.
Data set [9] is described as follows: Stability in saturated N2 atmosphere assessed as drug degradation by NMR and LC-MS/MS analysis. The format is physicochemical.
A short description of data set [10]: Stability in DMSO assessed as drug degradation at -20 to 37 degC by HPLC analysis. It is filed as physicochemical.
The target of data set [11] is T2, DNA dC->dU-editing enzyme APOBEC-3A. Particulars: HEK293, 200 uM.
Description: Inhibition of recombinant APOBEC3A (unknown origin) expressed in HEK293 cells assessed as reduction in cytosine deaminase activity at 200 uM using 5'-6-FAM and 3'-TAMRA quench molecule tagged cytosine-containing single-stranded DNA substrate incubated for 2 hrs and measured on day 0 by fluorescence-based assay
Data set [12] is described as follows: Drug metabolism in DMSO at 10 mM shaken gently at 25 degC open to atmosphere condition assessed as 2-oxo-1,2-dihydroquinoline-4-carboxylic acid formation after 38 days by HPLC analysis.
Data set [13] can be described thus: Stability in DMSO assessed as drug degradation incubated for 21 days by HPLC analysis. The format is physicochemical. Particulars: 504 h.
Data set [14] can be described thus: Drug metabolism in DMSO at 10 mM shaken gently at 25 degC exposed to visible light (300 W) in oxygen-saturated atmosphere assessed as 2-oxo-1,2-dihydroquinoline-4-carboxylic acid formation after 38 days by HPLC analysis.
Data set [15] can be described thus: Toxicity in HEK293T cells assessed as cell viability at 50 uM incubated for 5 days relative to control. It is filed as cell-based, HEK-293T. To be noted: human, read-out: Activity.
Data set [16] has as its target T1, DNA dC->dU-editing enzyme APOBEC-3G. Description: Inhibition of recombinant APOBEC3G (unknown origin) expressed in HEK293 cells assessed as reduction in cytosine deaminase activity at 200 uM using 5'-6-FAM and 3'-TAMRA quench molecule tagged cytosine-containing single-stranded DNA substrate incubated for 2 hrs and measured on day 0 by fluorescence-based assay. The format is cell-based.

Data set [17] has the same target. Description: Inhibition of recombinant APOBEC3G (unknown origin) expressed in HEK293 cells assessed as reduction in cytosine deaminase activity using 5'-6-FAM and 3'-TAMRA quench molecule tagged cytosine-containing single-stranded DNA substrate incubated for 2 hrs and measured on at days 3, 21, 38, and 72 by fluorescence-based assay. The format is cell-based.
Data set [18] has as its target T2, DNA dC->dU-editing enzyme APOBEC-3A. The experiment in a line: Inhibition of recombinant APOBEC3A (unknown origin) expressed in HEK293 cells assessed as reduction in cytosine deaminase activity at 200 uM using 5'-6-FAM and 3'-TAMRA quench molecule tagged cytosine-containing single-stranded DNA substrate incubated for 2 hrs by fluorescence-based assay relative to control. It is filed as cell-based.

T1 sequence (Q9HC16 whole entry): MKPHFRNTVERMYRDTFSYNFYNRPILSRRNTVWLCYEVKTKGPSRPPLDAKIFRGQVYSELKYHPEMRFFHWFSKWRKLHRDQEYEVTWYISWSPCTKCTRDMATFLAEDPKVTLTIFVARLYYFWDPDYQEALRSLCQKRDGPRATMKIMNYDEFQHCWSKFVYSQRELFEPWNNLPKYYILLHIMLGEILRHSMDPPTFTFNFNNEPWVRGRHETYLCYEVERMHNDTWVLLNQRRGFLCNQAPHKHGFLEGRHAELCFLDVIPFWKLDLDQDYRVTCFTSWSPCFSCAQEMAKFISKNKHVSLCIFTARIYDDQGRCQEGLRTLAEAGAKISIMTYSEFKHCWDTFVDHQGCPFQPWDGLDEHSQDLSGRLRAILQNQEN
T2 sequence (P31941 whole entry): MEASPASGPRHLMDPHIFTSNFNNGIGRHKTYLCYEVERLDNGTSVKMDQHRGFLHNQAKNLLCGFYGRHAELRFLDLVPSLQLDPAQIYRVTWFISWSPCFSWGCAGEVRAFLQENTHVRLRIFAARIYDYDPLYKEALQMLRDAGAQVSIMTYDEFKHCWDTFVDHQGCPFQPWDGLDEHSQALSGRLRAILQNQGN
Sequence of DNA dC->dU-editing enzyme APOBEC-3G (Homo sapiens, UniProt Q9HC16, C321A) (Q9HC16 whole entry C321A): as the sequence (Q9HC16 whole entry) above, with C321A counted along it
Sequence of DNA dC->dU-editing enzyme APOBEC-3B (Q9UH17 whole entry): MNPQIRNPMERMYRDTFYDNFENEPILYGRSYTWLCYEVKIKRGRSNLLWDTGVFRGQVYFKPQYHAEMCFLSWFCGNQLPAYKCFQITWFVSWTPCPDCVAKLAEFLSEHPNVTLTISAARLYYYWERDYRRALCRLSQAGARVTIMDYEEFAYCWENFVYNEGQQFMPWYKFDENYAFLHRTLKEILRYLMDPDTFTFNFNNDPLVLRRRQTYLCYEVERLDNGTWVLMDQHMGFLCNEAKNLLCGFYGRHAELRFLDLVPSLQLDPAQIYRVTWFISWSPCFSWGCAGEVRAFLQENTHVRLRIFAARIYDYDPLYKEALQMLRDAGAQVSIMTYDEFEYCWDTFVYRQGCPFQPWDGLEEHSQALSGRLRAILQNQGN

Take `O=C(Nc1nnc(-c2ccncc2)s1)c1cc(=O)[nH]c2ccc([N+](=O)[O-])cc12`: the half-maximal inhibitory concentration (IC50) in data set [1] is 31 µM; in data set [2], 23 µM; in data set [3] it was 74 µM; in data set [4] it was 12 µM; in data set [5], over 100 µM.
For `COc1ccc2[nH]c(=O)cc(C(=O)Nc3nnc(-c4ccncc4)s3)c2c1`, the IC50 in data set [1] was 37 µM; in [2], 20 µM; in data set [3] it was 24 µM; in [4], 17 µM; in data set [5], over 100 µM.
In the case of `Cc1ccc(-c2cc(C(=O)Nc3nnc(-c4ccncc4)s3)c3ccccc3n2)o1`, the Stability result in [6] is listed as “Stable”; in data set [7] it was “Unstable”; in data set [9] it was “Stable”; in data set [10] it was “Unstable”; in data set [13], “Unstable”. In addition, the viability at 120 h, 50 µM in data set [8] and in data set [15] was over 85% each time. Also, the inhibition result in data set [11], in [16] and in data set [17] was “inactive” each time. Also, the Drug metabolism result in data set [12] and in data set [14] was “Metabolite detected” each time.
With `O=C(Nc1nnc(-c2ccncc2)s1)c1ccnc(O)c1`, the IC50 is over 100 µM in data set [3], 60 µM in data set [4] and over 100 µM in data set [5].
Regarding `N#Cc1ncnn1C(=O)c1cc(=O)[nH]c2ccccc12`, the IC50 in data set [1] was over 100 µM; in data set [2], over 100 µM; in [3], over 100 µM; in data set [4], 15 µM; in data set [5], over 100 µM.
Turning to `O=C(O)c1cccc2c1C(=O)N(c1ccccc1)C2`, the IC50 in data set [5] was determined as 111 µM.
With `O=C(Nc1nnc(-c2ccncc2)s1)c1cc(Cl)nc2ccccc12`, the IC50 in data set [1] is over 100 µM; in data set [2], over 100 µM; in data set [3], over 100 µM; in data set [4], 22 µM; in data set [5], over 100 µM.
Regarding `O=C(Nc1nnc(-c2ccncc2)s1)c1cc(=O)[nH]c2ccccc12`, in data set [18], the inhibition amounted to 50%. Moreover, the IC50 in data set [1] was over 100 µM; in data set [2], over 100 µM; in data set [3], over 100 µM; in data set [4], 90 µM; in [5], over 100 µM.
In the case of `Nc1ccc2[nH]c(=O)cc(C(=O)Nc3nnc(-c4ccncc4)s3)c2c1`, the IC50 in [1] was 31 µM; in data set [2], 30 µM; in [3], 55 µM; in data set [4], 18 µM; in [5] it was over 100 µM.
For `O=C(Nc1nnc(-c2ccncc2)s1)c1cc(Br)nc2ccccc12`, the IC50 in data set [1] is 65 µM; in data set [2], 52 µM; in [4] it was 32 µM; in [5] it was 75 µM.
Turning to `O=C(Nc1nnc(-c2ccncc2)s1)c1ccc(O)nc1`, the IC50 in [1] was found to be 30 µM; in [2], 31 µM; in data set [4] it was 21 µM; in data set [5] it was 87 µM.

Values taken from ChEMBL document CHEMBL4419174, “Small molecule inhibitors of apobec3g and apobec3b” (2015).
